Experimental data from PMC4631615 (Bipolar disorders, 2015).
Values joined by “and” are separate entries in the source; they are usually repeats but may differ in a detail not shown here. Equal values may be shown once. Marks after values point to notes of the source that are not given here.

Assays:
[1] = system: histone deacetylase (HDAC); conditions: cited from earlier work
various animal models = conditions: cited from earlier work
[2] = system: patients with bipolar disorder; conditions: Phase IIb; cited from earlier work
pregnant SWV mice [3] = experiment: Maternal body weight and weight gain, teratogenicity study; assay type: in vivo, mouse; conditions: mean ± SD
pregnant SWV mice [4] = experiment: Pregnancy outcomes; assay type: in vivo, mouse; conditions: for Dead fetuses/litter / Fetus weight / Implantations/litter / Live fetuses/litter / Resorptions/litter: mean ± SD
acyl-CoA synthetase 4 = conditions: cited from earlier work
SWV mouse fetuses [5] = conditions: mouse, in vivo
SWV mouse fetuses [6] = experiment: Skeletal examination of fetuses; assay type: in vivo
NMRI mice = conditions: injected on GD 8 with 3 mmol/kg; cited from earlier work
mouse = conditions: source not given; cited from earlier work
[7] = 1/3.28 of LD50 (VCD 304.6 mg/kg) p.o. GD 4–17
[8] = 1/4.36 of LD50 (RIS 14.5, VCD 229.2 mg/kg) p.o. GD 4–17
[9] = 1/6.54 of LD50 (RIS 9.6, OLA 32.1, VCD 152.8 mg/kg) p.o. GD 4–17

CCC(C)C(CC)C(N)=O (stereo not drawn) [VCD, 2-ethyl-3-methylpentamide]
Inhibition of HDACs [1]: does not inhibit | Anticonvulsant potency relative to VPA (various animal models): 3–10 times | Tolerated daily dose with minimal side effects [2]: 1500 mg | Dams net weight gain (pregnant SWV mice [3]; [7]): 8.6 ± 1.8 grams | Dams weight GD 18 (pregnant SWV mice [3]; [7]): 48.2 ± 2.9 grams | Dams weight gain (pregnant SWV mice [3]; [7]): 20.5 ± 3.5 grams | Dams net weight gain (pregnant SWV mice [3]; [8]): 7.8 ± 2.1 grams | Dams weight GD 18 (pregnant SWV mice [3]; [8]): 47.3 ± 4.2 grams | Dams weight gain (pregnant SWV mice [3]; [8]): 20.1 ± 2.9 grams | Dams net weight gain (pregnant SWV mice [3]; [9]): 7.9 ± 2.1 grams | Dams weight GD 18 (pregnant SWV mice [3]; [9]): 48.5 ± 3.4 grams | Dams weight gain (pregnant SWV mice [3]; [9]): 20.2 ± 3.0 grams | Fetuses sex ratio F/M (pregnant SWV mice [4]; [7]): 57/73 | Dead fetuses/litter (pregnant SWV mice [4]; [7]): 0.1 ± 0.2 | Fetus weight (pregnant SWV mice [4]; [7]): 0.91 ± 0.06 g | Implantations/litter (pregnant SWV mice [4]; [7]): 14.5 ± 1.7 | Live fetuses/litter (pregnant SWV mice [4]; [7]): 13.2 ± 2.8 | Resorptions/litter (pregnant SWV mice [4]; [7]): 1.2 ± 1.4 | Fetuses sex ratio F/M (pregnant SWV mice [4]; [8]): 58/77 | Dead fetuses/litter (pregnant SWV mice [4]; [8]): 0.1 ± 0.3 | Fetus weight (pregnant SWV mice [4]; [8]): 0.90 ± 0.07 g | Implantations/litter (pregnant SWV mice [4]; [8]): 14.8 ± 1.6 | Live fetuses/litter (pregnant SWV mice [4]; [8]): 13.7 ± 2.0 | Resorptions/litter (pregnant SWV mice [4]; [8]): 0.9 ± 0.8 | Fetuses sex ratio F/M (pregnant SWV mice [4]; [9]): 71/73 | Dead fetuses/litter (pregnant SWV mice [4]; [9]): 0.2 ± 0.4 | Fetus weight (pregnant SWV mice [4]; [9]): 0.91 ± 0.07 g | Implantations/litter (pregnant SWV mice [4]; [9]): 14.9 ± 1.7 | Live fetuses/litter (pregnant SWV mice [4]; [9]): 13.8 ± 2.1 | Resorptions/litter (pregnant SWV mice [4]; [9]): 1.0 ± 0.9 | Ki, uncompetitive inhibition of acylation of arachidonic acid (acyl-CoA synthetase 4): 6.38 mM | Cleft palate, affected fetuses (SWV mouse fetuses [5]; female, SWV): 0 | Dilated renal pelvis, affected litters (SWV mouse fetuses [5]; female, SWV): 2/2 | Exencephaly, affected fetuses (SWV mouse fetuses [5]; female, SWV): 0 | Malposition stomach, affected litters (SWV mouse fetuses [5]; female, SWV): 1/1 | Right aortic arch, affected litters (SWV mouse fetuses [5]; female, SWV): 1/1 ^b | Overall teratogenicity under the experimental conditions (SWV mouse fetuses [5]; po): did not show any teratogenic effect | All vertebra: incomplete ossification, affected fetuses (SWV mouse fetuses [6]; [7]): 0 | Cervical vertebra: ossified fusion of centrums, affected fetuses (SWV mouse fetuses [6]; [7]): 1/1 | Cervical vertebra: ossified fusion of centrums, affected litters (SWV mouse fetuses [6]; [7]): 1/1 | Fetuses with skeletal abnormalities, % (SWV mouse fetuses [6]; [7]): 8.6% | Fibula: bent, affected fetuses (SWV mouse fetuses [6]; [7]): 0 | Metacarpal: absent ossification, affected fetuses (SWV mouse fetuses [6]; [7]): 1/1 | Metacarpal: absent ossification, affected litters (SWV mouse fetuses [6]; [7]): 1/1 | Metacarpal: incomplete ossification, affected fetuses (SWV mouse fetuses [6]; [7]): 0 | Metatarsal: absent ossification, affected fetuses (SWV mouse fetuses [6]; [7]): 1/1 | Metatarsal: absent ossification, affected litters (SWV mouse fetuses [6]; [7]): 1/1 | Metatarsal: incomplete ossification, affected fetuses (SWV mouse fetuses [6]; [7]): 0 | Ribs: absent 13th, affected fetuses (SWV mouse fetuses [6]; [7]): 0 | Ribs: branched, affected fetuses (SWV mouse fetuses [6]; [7]): 0 | Skull: incomplete ossification, affected fetuses (SWV mouse fetuses [6]; [7]): 0 | Skull: interparietal incomplete ossification, affected fetuses (SWV mouse fetuses [6]; [7]): 1/1 | Skull: interparietal incomplete ossification, affected litters (SWV mouse fetuses [6]; [7]): 1/1 | Skull: parietal incomplete ossification, affected fetuses (SWV mouse fetuses [6]; [7]): 0 | Skull: supraoccipital incomplete ossification, affected fetuses (SWV mouse fetuses [6]; [7]): 0 | Sternebra: absent ossification, affected fetuses (SWV mouse fetuses [6]; [7]): 1/1 | Sternebra: absent ossification, affected litters (SWV mouse fetuses [6]; [7]): 1/1 | Sternebra: incomplete ossification, affected fetuses (SWV mouse fetuses [6]; [7]): 1/1 | Sternebra: incomplete ossification, affected litters (SWV mouse fetuses [6]; [7]): 1/1 | Sternebra: misaligned, affected fetuses (SWV mouse fetuses [6]; [7]): 0 | Sternebra: misshapen, affected fetuses (SWV mouse fetuses [6]; [7]): 3 | Sternebra: misshapen, affected litters (SWV mouse fetuses [6]; [7]): 2 | Whole skeletal system: incomplete ossification, affected fetuses (SWV mouse fetuses [6]; [7]): 0 | All vertebra: incomplete ossification, affected fetuses (SWV mouse fetuses [6]; [8]): 0 | Cervical vertebra: ossified fusion of centrums, affected fetuses (SWV mouse fetuses [6]; [8]): 0 | Fibula: bent, affected fetuses (SWV mouse fetuses [6]; [8]): 1/1 | Fibula: bent, affected litters (SWV mouse fetuses [6]; [8]): 1/1 | Metacarpal: absent ossification, affected fetuses (SWV mouse fetuses [6]; [8]): 0 | Metacarpal: incomplete ossification, affected fetuses (SWV mouse fetuses [6]; [8]): 0 | Metatarsal: absent ossification, affected fetuses (SWV mouse fetuses [6]; [8]): 0 | Metatarsal: incomplete ossification, affected fetuses (SWV mouse fetuses [6]; [8]): 0 | Ribs: absent 13th, affected fetuses (SWV mouse fetuses [6]; [8]): 3/3 | Ribs: absent 13th, affected litters (SWV mouse fetuses [6]; [8]): 3/3 | Ribs: branched, affected fetuses (SWV mouse fetuses [6]; [8]): 1/1 | Ribs: branched, affected litters (SWV mouse fetuses [6]; [8]): 1/1 | Skull: incomplete ossification, affected fetuses (SWV mouse fetuses [6]; [8]): 1/1 | Skull: incomplete ossification, affected litters (SWV mouse fetuses [6]; [8]): 1/1 | Skull: interparietal incomplete ossification, affected fetuses (SWV mouse fetuses [6]; [8]): 0 | Skull: parietal incomplete ossification, affected fetuses (SWV mouse fetuses [6]; [8]): 0 | Skull: supraoccipital incomplete ossification, affected fetuses (SWV mouse fetuses [6]; [8]): 0 | Sternebra: absent ossification, affected fetuses (SWV mouse fetuses [6]; [8]): 0 | Sternebra: incomplete ossification, affected fetuses (SWV mouse fetuses [6]; [8]): 3 | Sternebra: incomplete ossification, affected litters (SWV mouse fetuses [6]; [8]): 2 | Sternebra: misaligned, affected fetuses (SWV mouse fetuses [6]; [8]): 0 | Sternebra: misshapen, affected fetuses (SWV mouse fetuses [6]; [8]): 6 | Sternebra: misshapen, affected litters (SWV mouse fetuses [6]; [8]): 4 | All vertebra: incomplete ossification, affected fetuses (SWV mouse fetuses [6]; [9]): 0 | Cervical vertebra: ossified fusion of centrums, affected fetuses (SWV mouse fetuses [6]; [9]): 0 | Fibula: bent, affected fetuses (SWV mouse fetuses [6]; [9]): 0 | Metacarpal: absent ossification, affected fetuses (SWV mouse fetuses [6]; [9]): 0 | Metacarpal: incomplete ossification, affected fetuses (SWV mouse fetuses [6]; [9]): 0 | Metatarsal: absent ossification, affected fetuses (SWV mouse fetuses [6]; [9]): 0 | Metatarsal: incomplete ossification, affected fetuses (SWV mouse fetuses [6]; [9]): 0 | Ribs: absent 13th, affected fetuses (SWV mouse fetuses [6]; [9]): 3 | Ribs: absent 13th, affected litters (SWV mouse fetuses [6]; [9]): 1 | Ribs: branched, affected fetuses (SWV mouse fetuses [6]; [9]): 1/1 | Ribs: branched, affected litters (SWV mouse fetuses [6]; [9]): 1/1 | Skull: incomplete ossification, affected fetuses (SWV mouse fetuses [6]; [9]): 6 | Skull: incomplete ossification, affected litters (SWV mouse fetuses [6]; [9]): 2 | Skull: interparietal incomplete ossification, affected fetuses (SWV mouse fetuses [6]; [9]): 1/1 | Skull: interparietal incomplete ossification, affected litters (SWV mouse fetuses [6]; [9]): 1/1 | Skull: parietal incomplete ossification, affected fetuses (SWV mouse fetuses [6]; [9]): 0 | Skull: supraoccipital incomplete ossification, affected fetuses (SWV mouse fetuses [6]; [9]): 1/1 | Skull: supraoccipital incomplete ossification, affected litters (SWV mouse fetuses [6]; [9]): 1/1 | Sternebra: absent ossification, affected fetuses (SWV mouse fetuses [6]; [9]): 2/2 | Sternebra: absent ossification, affected litters (SWV mouse fetuses [6]; [9]): 2/2 | Sternebra: incomplete ossification, affected fetuses (SWV mouse fetuses [6]; [9]): 0 | Sternebra: misaligned, affected fetuses (SWV mouse fetuses [6]; [9]): 1/1 | Sternebra: misaligned, affected litters (SWV mouse fetuses [6]; [9]): 1/1 | Sternebra: misshapen, affected fetuses (SWV mouse fetuses [6]; [9]): 0 | Fetuses with skeletal abnormalities, % (SWV mouse fetuses [6]; mouse, in vivo): 10.4% and 11.1% | Whole skeletal system: incomplete ossification, affected fetuses (SWV mouse fetuses [6]; mouse, in vivo): 0 | Embryotoxicity (NMRI mice): did not induce any embryotoxicity | LD50 mouse, oral (mouse): 999 mg/kg
